“And” between values parts separate entries of the source, which are not always exact repeats. Identical values can stand only once.
Experiment: relative permittivity at various frequencies (dimensionless)
Settings: Liquid, Frequency=0.001 MHz, Coaxial cylinder capacitor

CCCCCCC [heptane]
Settings | relative permittivity
303.56 K, 320.13 kPa | 1.90973
303.56 K, 1121.5 kPa | 1.91097
303.56 K, 5049.5 kPa | 1.9172
303.56 K, 10111 kPa | 1.92498
303.56 K, 20218 kPa | 1.93899
303.56 K, 20219 kPa | 1.93899
303.56 K, 30315 kPa | 1.95162
303.56 K, 30317 kPa | 1.95171
303.56 K, 40408 kPa | 1.96324
303.56 K, 50515 kPa | 1.97403
303.56 K, 60608 kPa | 1.98391
333.15 K, 327.25 kPa | 1.86971
333.15 K, 1134.1 kPa | 1.87125
333.15 K, 5058.1 kPa | 1.87892
333.15 K, 5509 kPa | 1.87899
333.15 K, 10118 kPa | 1.88834
333.15 K, 10122 kPa | 1.88832
333.15 K, 20230 kPa | 1.90484
333.15 K, 20232 kPa | 1.90482
333.15 K, 30327 kPa | 1.91942
333.15 K, 30328 kPa | 1.91944
333.15 K, 40419 kPa | 1.93256
333.15 K, 50511 kPa | 1.9444
333.15 K, 60625 kPa | 1.95543
363.01 K, 328.75 kPa | 1.82615
363.01 K, 1138 kPa | 1.82815
363.01 K, 5057.6 kPa | 1.83786
363.01 K, 5062.5 kPa | 1.83787
363.01 K, 10125 kPa | 1.84924
363.01 K, 20232 kPa | 1.86884 and 1.86885
363.01 K, 30330 kPa | 1.8855
363.01 K, 30332 kPa | 1.88575
363.01 K, 40413 kPa | 1.90054
363.01 K, 50513 kPa | 1.9141
363.01 K, 60612 kPa | 1.9264
363.01 K, 60613 kPa | 1.92636

Source: the NIST ThermoML archive (doi:10.1021/je400468z)
